The values that follow come from US20030207812A1, “Cd45 inhibitors” (priority 2002, published 2003).

Where a SMILES comes first, the peptide text is derived from it. The star is where a group is joined. Phenanthrenequinone2carbonyl = O=C1C(=O)c2cc(C(=O)*)ccc2-c2ccccc21; 3Phenanthroyl(9,10-dioxo) = O=C1C(=O)c2ccc(C(=O)*)cc2-c2ccccc21 A value given as a limit tells only on which side of the number the result lay.

Data set [1] addresses T1, CD45 (Homo sapiens, UniProt P08575).
T1 construct: incubating the cytosolic portion of CD45 with the compounds and p-nitrophenyl phosphate (pNPP); purchased BIOMOL (Plymouth Meeting, Pa.)
T1 sequence (P08575 599-1306 limits assumed): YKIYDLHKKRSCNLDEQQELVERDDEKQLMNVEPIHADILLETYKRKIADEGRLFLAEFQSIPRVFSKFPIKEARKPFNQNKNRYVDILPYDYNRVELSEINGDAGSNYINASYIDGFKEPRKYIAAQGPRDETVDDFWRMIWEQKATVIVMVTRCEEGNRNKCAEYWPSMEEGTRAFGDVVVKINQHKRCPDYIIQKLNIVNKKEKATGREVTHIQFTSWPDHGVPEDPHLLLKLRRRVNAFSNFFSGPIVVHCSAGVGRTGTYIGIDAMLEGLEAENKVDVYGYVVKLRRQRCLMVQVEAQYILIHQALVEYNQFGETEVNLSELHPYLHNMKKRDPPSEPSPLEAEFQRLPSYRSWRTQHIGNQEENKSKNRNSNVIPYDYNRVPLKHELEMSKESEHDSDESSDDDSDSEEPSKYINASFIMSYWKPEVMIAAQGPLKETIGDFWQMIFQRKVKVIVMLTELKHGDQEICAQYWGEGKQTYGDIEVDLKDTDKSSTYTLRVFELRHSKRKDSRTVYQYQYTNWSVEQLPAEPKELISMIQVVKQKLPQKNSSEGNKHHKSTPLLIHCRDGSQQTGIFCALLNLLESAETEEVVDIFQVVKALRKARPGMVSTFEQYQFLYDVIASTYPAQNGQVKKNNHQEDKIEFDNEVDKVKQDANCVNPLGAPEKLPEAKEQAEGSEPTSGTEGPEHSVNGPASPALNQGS
Nature of the data set: Phosphatase assay using lck 10-mer as substrate. In kind it is biochemical. The gist of the method:
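Enzyme incubated with lck phosphopeptide TEGQpYQPQP for 1.5 h at room temperature in 25 mM HEPES pH 7.2, 5 mM DTT, 10 μg/mL BSA, 5% DMSO final. Compounds tested from 30 to 0.01 μM. Released phosphate detected with malachite-type Green Reagent, absorbance at 620 nm after 30 min.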

Data set [2] has as its target T1, CD45. Nature of the data set: Phosphatase assay using pNPP as substrate. It counts as biochemical. The procedure:
Phosphatase assay using pNPP as substrate:
CD45 enzyme was obtained from BIOMOL (Plymouth Meeting, Pa.). Phosphatase activity was assayed in a buffer containing final concentrations of 25 mM imidazole at pH 7.0, 50 mM NaCl, 2.5 mM ethylenediaminetetraacetic acid (“EDTA”), 5 mM dithiothreitol (“DTT”) and 10 μg/mL bovine serum albumin (“BSA”) using pNPP as a substrate.

A short description of the next data set: in vitro. To be noted: human.
For the next data set, the system named is T cells (PBMC). Nature of the data set: cells. To be noted: human PBMC, OKT3 30 ng/mL, [3H]thymidine; read-out: T cell prolif. IC50. It counts as cell-based, human.
Setting [3] is: CD45 phosphatase, lck carboxy-terminal peptide TEGQpYQPQP substrate, pH 7.2, read-out: Ick IC50.

Usually IC50 stands for the concentration at which inhibition is half-maximal. On to `NC(=O)CC[C@H](NC(=O)c1ccc2c(c1)-c1ccccc1C(=O)C2=O)C(=O)N[C@@H](CCC(N)=O)C(=O)NCC(=O)N[C@@H](CCC(N)=O)C(=O)N1CCC[C@H]1C(=O)O` [Example 30] ({3Phenanthroyl(9,10-dioxo)}-QQGQP-OH), for which the IC50 was found to be 1.7 µM against CD45 [1] and 0.9 µM at CD45 [2] (pH 7, read-out: pNPP IC50). The CC50 in “in vitro” is > 30 µM.

In the case of `NC(=O)CC[C@H](NC(=O)c1ccc2c(c1)-c1ccccc1C(=O)C2=O)C(=O)N[C@@H](CCC(=O)O)C(=O)NCC(=O)N[C@@H](CCC(N)=O)C(=O)N1CCC[C@H]1C(=O)O` [Example 33] ({3Phenanthroyl(9,10-dioxo)}-QEGQP-OH), the IC50 at CD45 [1] is 2.5 µM; on CD45 [2] (pH 7, read-out: pNPP IC50), 1.1 µM. Moreover, the CC50 in the data set “in vitro” is > 30 µM.

In the case of `O=C1C(=O)c2ccccc2-c2ccccc21` [Example 106, 9,10-Phenanthrenedione], the 50% inhibitory concentration (IC50) at CD45 [1] (pH 7.2, read-out: Ick IC50) stood at 3.1 µM; at CD45 [2] (pH 7, read-out: pNPP IC50), 0.7 µM; with T cells (PBMC), 0.3 µM. Moreover, the CC50 in the data set “in vitro” is 1.3 µM.

On to `NC(=O)CC[C@H](NC(=O)c1ccc2c(c1)-c1ccccc1C(=O)C2=O)C(=O)N[C@@H](CCC(N)=O)C(=O)N1CCC[C@H]1C(=O)N[C@@H](CCC(N)=O)C(=O)N1CCC[C@H]1C(=O)O` [Example 26] ({3Phenanthroyl(9,10-dioxo)}-QQPQP-OH), for which the IC50 was 2.3 µM at CD45 [1] and 0.7 µM at CD45 [2] (pH 7, read-out: pNPP IC50). Also, the CC50 in the data set “in vitro” is > 30 µM.

Take `NC(=O)CC[C@H](NC(=O)[C@H](CCC(=O)O)NC(=O)c1ccc2c(c1)-c1ccccc1C(=O)C2=O)C(=O)NCC(=O)N[C@@H](CCC(N)=O)C(=O)N1CCC[C@H]1C(=O)O` [Example 31] ({3Phenanthroyl(9,10-dioxo)}-EQGQP-OH): the IC50 on CD45 [1] came to 2.5 µM; at CD45 [2] (pH 7, read-out: pNPP IC50), 0.6 µM. For the same compound, the CC50 in “in vitro” was > 30 µM.

As to `NC(=O)CC[C@H](NC(=O)[C@@H]1CCCN1C(=O)[C@H](CCC(N)=O)NC(=O)[C@H](CCC(=O)O)NC(=O)c1ccc2c(c1)-c1ccccc1C(=O)C2=O)C(=O)N1CCC[C@H]1C(=O)O` [Example 24] ({3Phenanthroyl(9,10-dioxo)}-EQPQP-OH), the IC50 was 2.4 µM on CD45 [1] and 0.6 µM at CD45 [2] (pH 7, read-out: pNPP IC50). Besides, in “in vitro”, the CC50 is > 30 µM.

As for `N=C(N)NCCC[C@H](NC(=O)[C@H](CCC(=O)O)NC(=O)c1ccc2c(c1)C(=O)C(=O)c1ccccc1-2)C(=O)N1CCC[C@H]1C(=O)N[C@@H](CCC(=O)O)C(=O)NCC(=O)O` [Example 47] (Phenanthrenequinone2carbonyl-ERPEG-OH), the IC50 against CD45 [1] was 4.2 µM; at CD45 [2] (pH 7, read-out: pNPP IC50) it was 0.7 µM. Further, the CC50 in “in vitro” was > 30 µM.

On to `N=C(N)NCCC[C@H](NC(=O)[C@@H]1CCCN1C(=O)[C@H](CCCNC(=N)N)NC(=O)[C@H](CCC(=O)O)NC(=O)c1ccc2c(c1)C(=O)C(=O)c1ccccc1-2)C(=O)NCC(=O)O` [Example 56] (Phenanthrenequinone2carbonyl-ERPRG-OH), for which the IC50 against CD45 [1] was 2.3 µM; at CD45 [2] (pH 7, read-out: pNPP IC50) it was 0.8 µM. Moreover, in “in vitro”, the CC50 is > 30 µM.

Regarding `NC(=O)CC[C@H](NC(=O)[C@@H]1CCCN1C(=O)[C@H](CCC(N)=O)NC(=O)CNC(=O)c1ccc2c(c1)-c1ccccc1C(=O)C2=O)C(=O)NCC(=O)O` [Example 36] ({3Phenanthroyl(9,10-dioxo)}-GQPQG-OH), the values for the IC50 on CD45 [1] (setting [3]) and against CD45 [2] were 2.2 µM and 1 µM, respectively. In addition, in “in vitro”, the CC50 is > 30 µM.

Regarding `NC(=O)CC[C@H](NC(=O)CNC(=O)[C@H](CCC(=O)O)NC(=O)CNC(=O)c1ccc2c(c1)-c1ccccc1C(=O)C2=O)C(=O)N1CCC[C@H]1C(=O)O` [Example 32] ({3Phenanthroyl(9,10-dioxo)}-GEGQP-OH), the IC50 against CD45 [1] stood at 2.3 µM; on CD45 [2] (pH 7, read-out: pNPP IC50), 0.7 µM. Further, in the data set “in vitro”, the CC50 is > 30 µM.

On to `NC(=O)CC[C@H](NC(=O)c1ccc2c(c1)-c1ccccc1C(=O)C2=O)C(=O)N[C@@H](CCC(=O)O)C(=O)N1CCC[C@H]1C(=O)N[C@@H](CCC(N)=O)C(=O)N1CCC[C@H]1C(=O)O` [Example 28] ({3Phenanthroyl(9,10-dioxo)}-QEPQP-OH), for which the IC50 turned out to be 2.2 µM on CD45 [1] and 1.1 µM at CD45 [2] (pH 7, read-out: pNPP IC50). Further, in “in vitro”, the CC50 is > 30 µM.

Regarding `O=C(O)CC[C@H](NC(=O)[C@@H]1CCCN1C(=O)CNC(=O)CNC(=O)c1ccc2c(c1)C(=O)C(=O)c1ccccc1-2)C(=O)NCC(=O)O` [Example 40] (Phenanthrenequinone2carbonyl-GGPEG-OH), the IC50 came out at 3.9 µM against CD45 [1] and 0.6 µM on CD45 [2] (pH 7, read-out: pNPP IC50). Besides, in the data set “in vitro”, the CC50 is > 30 µM.

In the case of `NC(=O)CC[C@H](NC(=O)[C@@H]1CCCN1C(=O)[C@H](CCC(=O)O)NC(=O)CNC(=O)c1ccc2c(c1)-c1ccccc1C(=O)C2=O)C(=O)N1CCC[C@H]1C(=O)O` [Example 27] ({3Phenanthroyl(9,10-dioxo)}-GEPQP-OH), the IC50 against CD45 [1] came to 3.1 µM; at CD45 [2] (pH 7, read-out: pNPP IC50) it was 0.7 µM. Also, the CC50 in “in vitro” is > 30 µM.

`N=C(N)NCCC[C@H](NC(=O)c1ccc2c(c1)C(=O)C(=O)c1ccccc1-2)C(=O)N[C@@H](CCC(=O)O)C(=O)N1CCC[C@H]1C(=O)N[C@@H](CCCNC(=N)N)C(=O)NCC(=O)O` [Example 54] (Phenanthrenequinone2carbonyl-REPRG-OH): the IC50 was 3.9 µM at CD45 [1] (setting [3]) and 0.9 µM against CD45 [2]. The CC50 in the data set “in vitro” was > 30 µM.

As to `N=C(N)NCCC[C@H](NC(=O)CNC(=O)c1ccc2c(c1)C(=O)C(=O)c1ccccc1-2)C(=O)N1CCC[C@H]1C(=O)N[C@@H](CCC(=O)O)C(=O)NCC(=O)O` [Example 46] (Phenanthrenequinone2carbonyl-GRPEG-OH), the half-inhibitory concentration (IC50) against CD45 [1] was found to be 3.8 µM; at CD45 [2] (pH 7, read-out: pNPP IC50), 1 µM. Also, the CC50 in “in vitro” was > 30 µM.

With `N=C(N)NCCC[C@H](NC(=O)c1ccc2c(c1)C(=O)C(=O)c1ccccc1-2)C(=O)NCC(=O)N1CCC[C@H]1C(=O)N[C@@H](CCCNC(=N)N)C(=O)NCC(=O)O` [Example 51] (Phenanthrenequinone2carbonyl-RGPRG-OH), the IC50 was determined as 4.8 µM against CD45 [1] and 1.1 µM on CD45 [2] (pH 7, read-out: pNPP IC50). In addition, in “in vitro”, the CC50 was > 30 µM.

On to `NC(=O)CC[C@H](NC(=O)[C@@H]1CCCN1C(=O)[C@H](CCC(N)=O)NC(=O)CNC(=O)c1ccc2c(c1)-c1ccccc1C(=O)C2=O)C(=O)N1CCC[C@H]1C(=O)O` [Example 25] ({3Phenanthroyl(9,10-dioxo)}-GQPQP-OH), for which the IC50 amounted to 2.5 µM at CD45 [1] and 1.2 µM at CD45 [2] (pH 7, read-out: pNPP IC50). In addition, in the data set “in vitro”, the CC50 is > 30 µM.

Turning to `N=C(N)NCCC[C@H](NC(=O)[C@@H]1CCCN1C(=O)CNC(=O)CNC(=O)c1ccc2c(c1)C(=O)C(=O)c1ccccc1-2)C(=O)NCC(=O)O` [Example 49] (Phenanthrenequinone2carbonyl-GGPRG-OH), the half-inhibitory concentration (IC50) against CD45 [1] was 6.1 µM; at CD45 [2] (pH 7, read-out: pNPP IC50), 0.9 µM. Also, the CC50 in the data set “in vitro” was > 30 µM.

For the compound `NC(=O)CC[C@H](NC(=O)CNC(=O)c1ccc2c(c1)-c1ccccc1C(=O)C2=O)C(=O)NCC(=O)N[C@@H](CCC(N)=O)C(=O)N1CCC[C@H]1C(=O)O` [Example 29] ({3Phenanthroyl(9,10-dioxo)}-GQGQP-OH), the IC50 was 2.5 µM on CD45 [1] and 1.1 µM on CD45 [2] (pH 7, read-out: pNPP IC50). Further, the CC50 in “in vitro” was > 30 µM.

For `O=C(O)CC[C@H](NC(=O)c1ccc2c(c1)C(=O)C(=O)c1ccccc1-2)C(=O)N[C@@H](CCC(=O)O)C(=O)N1CCC[C@H]1C(=O)N[C@@H](CCC(=O)O)C(=O)NCC(=O)O` [Example 44] (Phenanthrenequinone2carbonyl-EEPEG-OH), the 50% inhibitory concentration (IC50) was determined as 3.8 µM at CD45 [1] and 1.1 µM on CD45 [2] (pH 7, read-out: pNPP IC50). The CC50 in the data set “in vitro” is > 30 µM.

Turning to `N=C(N)NCCC[C@H](NC(=O)c1ccc2c(c1)C(=O)C(=O)c1ccccc1-2)C(=O)N[C@@H](CCCNC(=N)N)C(=O)N1CCC[C@H]1C(=O)N[C@@H](CCCNC(=N)N)C(=O)NCC(=O)O` [Example 57] (Phenanthrenequinone2carbonyl-RRPRG-OH), the IC50 against CD45 [1] was found to be 3.2 µM; on CD45 [2] (pH 7, read-out: pNPP IC50), 1.3 µM. The CC50 in the data set “in vitro” was > 30 µM.

Consider `N=C(N)NCCC[C@H](NC(=O)[C@@H]1CCCN1C(=O)CNC(=O)[C@H](CCC(=O)O)NC(=O)c1ccc2c(c1)C(=O)C(=O)c1ccccc1-2)C(=O)NCC(=O)O` [Example 50] (Phenanthrenequinone2carbonyl-EGPRG-OH), for which the IC50 against CD45 [1] was determined as 2.8 µM; on CD45 [2] (pH 7, read-out: pNPP IC50), 0.7 µM. Moreover, the CC50 in the data set “in vitro” was > 30 µM.
